# Results published in PubChem BioAssay AID670 (University of Pittsburgh Molecular Library Screening Center, 2007).
# Biological target: M-phase inducer phosphatase 2 (Homo sapiens) (UniProt P30305)
# Assay: Cdc25B inhibition under reducing thiol conditions, late-stage follow-up, Cdc25B inhibitor project, biochemical, beta-mercaptoethanol present, catalytic domain, IC50 (AID 670)
# Conditions: recombinant Cdc25B phosphatase activity, with beta-mercaptoethanol
# Sequence of M-phase inducer phosphatase 2 (Homo sapiens) (P30305 whole entry, looked up, the tested form may be a part): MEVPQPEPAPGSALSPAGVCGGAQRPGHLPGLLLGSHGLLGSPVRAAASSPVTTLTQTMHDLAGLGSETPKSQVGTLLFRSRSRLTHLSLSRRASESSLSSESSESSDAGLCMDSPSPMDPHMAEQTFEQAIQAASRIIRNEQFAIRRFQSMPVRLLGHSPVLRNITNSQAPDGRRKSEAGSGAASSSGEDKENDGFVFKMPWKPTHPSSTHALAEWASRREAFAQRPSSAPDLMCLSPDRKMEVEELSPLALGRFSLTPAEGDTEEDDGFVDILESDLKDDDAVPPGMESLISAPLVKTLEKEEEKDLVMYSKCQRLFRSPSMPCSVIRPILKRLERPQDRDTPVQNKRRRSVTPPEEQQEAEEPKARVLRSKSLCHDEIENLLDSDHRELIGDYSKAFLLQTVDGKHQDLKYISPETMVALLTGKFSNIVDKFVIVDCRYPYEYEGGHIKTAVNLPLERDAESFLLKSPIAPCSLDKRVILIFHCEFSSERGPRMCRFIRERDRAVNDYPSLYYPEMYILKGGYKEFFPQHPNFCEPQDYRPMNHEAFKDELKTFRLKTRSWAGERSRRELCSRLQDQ
row,Compound,IC50 [µM]
1,COc1cccc2c1NC(C(=O)O)C1CC=CC21 (configuration not stated),8.11
2,O=C(OC1CCCCC1)c1ccc2c(c1)C1C=CCC1C(C(=O)O)N2 (configuration not stated),3.8
